Results from patent US20110256559A1, “Method for Detecting Soluble Amyloid Precursor Protein (APP) Alpha and/or Soluble APP Beta” (INSERM (Institut National de la Sante et de la Recherche …, priority 2008, published 2011).
“Also recorded” adds a separate entry of the source.

How the values were obtained:
sAPPα [1] = assay: sAPPα HTRF assay in SH-SY5Y neuroblastoma cells conditioned medium; assay type: cell-based, human; settings: for effect on PdBu-induced increase of sAPPα secretion: PKC activated by PdBu (FIG. 7)
Method: (§1) Four types of biological samples were investigated using the following procedure: human CSF, human blood serum, culture medium of neuroblastoma SH-SY5Y cell line treated with different drugs (for instance the PKC activator PdBu which stimulate the ADAM 17 alpha secretase activity), or conditioned culture medium from primary mouse cortical neurons.
(§2) All samples and calibrator were treated with 10 mM DTT on ice, during 30 min. In a 384-well low volume (20 μl) white plate, reagents were distributed in the following order: • 5 μl 150 mM phosphate buffer pH 7.0, 0.2% BSA. • 5 μl sample or calibrator, treated with DTT and diluted. • 5 μl MAB348 antibody, cryptate conjugate, diluted 1/250 with 50 mM phosphate buffer pH 7.0, 0.4M KF. • 5 μl 2B3 antibody, D2 conjugate, diluted 1/250 with 50 mM phosphate buffer pH 7.0, 0.4M KF.
The plate covered with a plate sealer was centrifuged (1000 g 1 min) and incubated overnight, at room temperature.
The plate sealer was removed, and the plate read on a compatible HTRF reader (Envision, Perkin Elmer), at […].
Results are calculated from 665 nm/620 nm ratio and expressed in delta F: […]
Delta F is proportional to the sAPPα concentration; Delta F obtained for samples can be reported on the calibration curve to deduce respective sAPPα concentration.
Different samples were submitted to the sAPPα HTRF assay with or without DTT treatment.
Numerous studies have shown that the sAPPα secretion is regulated by some intracellular signalisation pathway involving PKC and that the α-secretase responsible for this secretion is a disintegrin-metalloproteinase (ADAM 17).

sAPPα [2] = assay: sAPPα HTRF assay in primary cortical neurons conditioned medium; assay type: cell-based, mouse; settings: primary neurons from transgenic mice expressing wild type human APP (FIG. 8)
Method: as §1, §2
Validation of the sAPPα HTRF Assay in Primary Cortical Neurons Conditioned Medium. (FIG. 8)

With `CC(C)C[C@H](CC(=O)NO)C(=O)N[C@@H](Cc1ccc2ccccc2c1)C(=O)N[C@@H](C)C(N)=O` [TAPI 0] the “effect on PdBu-induced increase of sAPPα secretion” value (sAPPα [1]; SH-SY5Y conditioned medium) was “abolished”.

For `CCCC(=O)O[C@@H]1[C@@H](C)[C@@]2(O)[C@@H](C=C(CO)C[C@]3(O)C(=O)C(C)=C[C@@H]23)[C@@H]2C(C)(C)[C@]12OC(=O)CCC` [PdBu], the “effect on amount of sAPPα / sAPPα secretion” value (sAPPα [1]; SH-SY5Y conditioned medium, samples pre-treated with DTT (FIG. 7)) was “activates the production of sAPPα; also recorded: increased”, the “sAPP alpha, Without DTT” value (sAPPα [1]; conditioned medium of SH-SY5Y neuroblastoma cell line, no DTT pre-treatment, n=8) was 3.4 ± 0.4 ng/mL and the “sAPP alpha, With DTT” value (sAPPα [1]; conditioned medium of SH-SY5Y neuroblastoma cell line, sample pre-treated with 10 mM DTT, n=8) was 59.1 ± 2.8 ng/mL. The “sAPPα Mean, inter assay reproducibility” value (sAPPα [1]; conditioned medium, inter assay, 16 samples) was 61.4 ng/mL and the “sAPPα Mean, intra assay reproducibility” value (sAPPα [1]; conditioned medium, intra assay, 8 samples) was 59.1 ng/mL.

PACAP 1-27 was tested, and the “effect on sAPP alpha in the medium” value (sAPPα [2]) was “increase of sAPP alpha”.

For `O=C(O[C@@H]1Cc2c(O)cc(O)cc2O[C@@H]1c1cc(O)c(O)c(O)c1)c1cc(O)c(O)c(O)c1` [EGCG], the “effect on sAPP alpha in the medium” value (sAPPα [2]) was “increase of sAPP alpha”.

With `CN(C)CCCn1cc(C2=C(c3c[nH]c4ccccc34)C(=O)NC2=O)c2ccccc21` [GF 109203] the “effect on PdBu-induced increase of sAPPα secretion” value (sAPPα [1]; SH-SY5Y conditioned medium) was “abolished”.
